The test system of assay [1] is Aβ production in Chinese hamster ovary cells that over-express human APP695 with the London and Swedish mutations. As to the kind of experiment: Cellular Aβ IC50 determination (Aβ40 sandwich ELISA). The class given is cell-based. Conditions: Cricetulus griseus; cellular Aβ production; read-out: IC50. The protocol:
The potency of compounds against memapsin 2 activity was determined in a cellular assay of Aβ production. […] Chinese hamster ovary cells that over-express human APP695 with the London and Swedish mutations were seeded in multi-well plates at 10% confluency. Compounds are dissolved in DMSO to concentrations near 1 mM, and diluted into culture media to a final concentration near 4 μM (final 0.4% DMSO). […] Aliquots were removed and assayed for Aβ40 content using a sandwich ELISA (BioSource International). Amount of Aβ40 over the range of concentration of compounds, relative to control incubations, were fit to a 4-parameter IC50 model.
Background: ELISA stands for enzyme-linked immunosorbent assay.

A further assay addresses memapsin 2 (Homo sapiens, UniProt P56817). As to the kind of experiment: Inhibition of memapsin 2 beta-secretase activity (fluorogenic substrate FS-2). The class given is biochemical. The settings on record: memapsin 2, pH 4, 37° C., read-out: M2Ki. The procedure, abridged: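 Memapsin 2 pre-incubated 20 min with compound at pH 4, 37° C, then FS-2 substrate (MCA-SEVNLDAEFK-DNP, APP Swedish cleavage site) added. Rate of fluorescence increase compared with uninhibited controls, fitted to a tight-binding inhibition model.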

Like-named read-outs stand apart in the source and are kept apart here. A value given as a limit tells only on which side of the number the result lay.

memapsin 2, sequence (P56817 46-501): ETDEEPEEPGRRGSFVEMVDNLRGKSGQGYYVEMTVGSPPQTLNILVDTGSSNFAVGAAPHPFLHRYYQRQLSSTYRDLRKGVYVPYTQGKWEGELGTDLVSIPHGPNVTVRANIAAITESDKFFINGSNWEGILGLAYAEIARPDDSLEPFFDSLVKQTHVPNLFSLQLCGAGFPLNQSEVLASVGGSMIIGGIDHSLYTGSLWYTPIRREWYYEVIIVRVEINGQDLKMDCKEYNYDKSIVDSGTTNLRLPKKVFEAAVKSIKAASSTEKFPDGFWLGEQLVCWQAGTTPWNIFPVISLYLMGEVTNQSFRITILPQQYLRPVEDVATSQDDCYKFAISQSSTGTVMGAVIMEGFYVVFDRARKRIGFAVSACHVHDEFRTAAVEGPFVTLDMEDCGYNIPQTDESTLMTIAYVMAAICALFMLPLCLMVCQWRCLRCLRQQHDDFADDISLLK

The term IC50 denotes the point on the concentration scale where inhibition reaches its midpoint. Consider `Cc1csc(CN(C)C(=O)c2cccc(C(=O)N[C@@H](Cc3ccccc3)[C@H](O)CNCc3cccc(C(C)(C)C)c3O)c2)n1` [Compound 77, N1-((2S,3R)-4-(3-tert-butyl-2-hydroxybenzylamino)-3-hydroxy-1-phenylbutan-2-yl)-N3-methyl-N3-((4-methylthiazol-2-yl)methyl)isophthalamide], for which the IC50 in assay [1] is less than 1000 nM. On memapsin 2 (20 minutes pre-incubation), the Ki is less than 300 nM.
The like results for `Cc1csc(CN(C)C(=O)c2cc(CF)cc(C(=O)N[C@@H](Cc3ccccc3)[C@H](O)CNCc3cncc(C(C)C)c3)c2)n1` [Compound 176, 5-(fluoromethyl)-N1-((2S,3R)-3-hydroxy-4-((5-isopropylpyridin-3-yl)methylamino)-1-phenylbutan-2-yl)-N3-methyl-N3-((4-methylthiazol-2-yl)methyl)isophthalamide] were, in that order, less than 1000 nM and less than 300 nM.
As to `COc1cccc(CNC[C@@H](O)[C@H](Cc2ccccc2)NC(=O)c2cc(C(=O)N(C)Cc3nc(C)cs3)cc(-c3cccnc3)c2)c1` [Compound 189, N1-((2S,3R)-3-hydroxy-4-(3-methoxybenzylamino)-1-phenylbutan-2-yl)-N3-methyl-N3-((4-methylthiazol-2-yl)methyl)-5-(pyridin-3-yl)isophthalamide], the IC50 in assay [1] is less than 1000 nM. In addition, the Ki on memapsin 2 (20 minutes pre-incubation) was less than 300 nM.
The like results for `Cc1csc(CN(C)C(=O)c2cc(C(=O)N[C@@H](Cc3ccccc3)[C@H](O)CNCc3cc(C(C)C)nc(N)n3)cc(-c3ncco3)c2)n1` [Compound 177, N1-((2S,3R)-4-((2-amino-6-isopropylpyrimidin-4-yl)methylamino)-3-hydroxy-1-phenylbutan-2-yl)-N3-methyl-N3-((4-methylthiazol-2-yl)methyl)-5-(oxazol-2-yl)isophthalamide] were, in that order, less than 1000 nM and less than 300 nM.
In the case of `COc1cccc(CNC[C@@H](O)[C@H](Cc2ccccc2)NC(=O)c2cc(CO)cc(C(=O)N(C)Cc3nc(C)cs3)c2)c1` [Compound 49, N1-((2S,3R)-3-hydroxy-4-(3-methoxybenzylamino)-1-phenylbutan-2-yl)-5-(hydroxymethyl)-N3-methyl-N3-((4-methylthiazol-2-yl)methyl)isophthalamide], in assay [1], the IC50 is less than 1000 nM. Moreover, the Ki at memapsin 2 (20 minutes pre-incubation) is less than 300 nM.
`COc1cccc(CNC[C@@H](O)[C@H](Cc2ccccc2)NC(=O)c2cc(C(=O)N(C)Cc3nc(C)cs3)cc(N(C)C)c2)c1` [Compound 65, 5-(dimethylamino)-N1-((2S,3R)-3-hydroxy-4-(3-methoxybenzylamino)-1-phenylbutan-2-yl)-N3-methyl-N3-((4-methylthiazol-2-yl)methyl)isophthalamide]: the IC50 in assay [1] was less than 1000 nM. Further, the Ki at memapsin 2 (20 minutes pre-incubation) is less than 300 nM.
For `Cc1csc(CN(C)C(=O)c2cccc(C(=O)N[C@@H](Cc3ccccc3)[C@H](O)CNCc3cc(C(C)(C)C)ccc3O)c2)n1` [Compound 111, N1-((2S,3R)-4-(5-tert-butyl-2-hydroxybenzylamino)-3-hydroxy-1-phenylbutan-2-yl)-N3-methyl-N3-((4-methylthiazol-2-yl)methyl)isophthalamide], the IC50 in assay [1] was less than 1000 nM. For the same compound, the Ki at memapsin 2 (20 minutes pre-incubation) is less than 300 nM.
Regarding `COC(=O)c1cccc(CNC[C@@H](O)[C@H](Cc2ccccc2)NC(=O)c2cccc(C(=O)N(C)Cc3nc(C)cs3)c2)c1` [Compound 141, methyl 3-(((2R,3S)-2-hydroxy-3-(3-(methyl((4-methylthiazol-2-yl)methyl)carbamoyl)benzamido)-4-phenylbutylamino)methyl)benzoate], the IC50 in assay [1] was less than 1000 nM. The Ki at memapsin 2 (20 minutes pre-incubation) lay in the range of 301 to 500 nM.
Take `COc1cccc(CNC[C@@H](O)[C@H](Cc2ccccc2)NC(=O)c2cc(C(=O)N(C)Cc3nc(C)cs3)cc(-c3ccccc3C#N)c2)c1` [Compound 140, 2′-cyano-N3-((2S,3R)-3-hydroxy-4-(3-methoxybenzylamino)-1-phenylbutan-2-yl)-N5-methyl-N5-((4-methylthiazol-2-yl)methyl)biphenyl-3,5-dicarboxamide]: the IC50 in assay [1] was less than 1000 nM. Further, the Ki at memapsin 2 (20 minutes pre-incubation) is less than 300 nM.
Turning to `Cc1csc(CN(C)C(=O)c2cccc(C(=O)N[C@@H](Cc3ccccc3)[C@H](O)CNCc3cccc(C(C)(C)O)c3)c2)n1` [Compound 184, N1-((2S,3R)-3-hydroxy-4-(3-(2-hydroxypropan-2-yl)benzylamino)-1-phenylbutan-2-yl)-N3-methyl-N3-((4-methylthiazol-2-yl)methyl)isophthalamide], the IC50 in assay [1] is less than 1000 nM. Moreover, the Ki on memapsin 2 (20 minutes pre-incubation) is less than 300 nM.
`CC(=O)c1cncc(CNC[C@@H](O)[C@H](Cc2ccccc2)NC(=O)c2cccc(C(=O)N(C)Cc3nc(C)cs3)c2)c1` [Compound 264, N1-((2S,3R)-4-((5-acetylpyridin-3-yl)methylamino)-3-hydroxy-1-phenylbutan-2-yl)-N3-methyl-N3-((4-methylthiazol-2-yl)methyl)isophthalamide]: in assay [1], the IC50 is less than 1000 nM. Also, at memapsin 2 (fluorogenic substrate FS-2), the Ki was less than 300 nM.
Taken in the same sequence, the figures for `CNS(=O)(=O)c1cc(CNC[C@@H](O)[C@H](Cc2ccccc2)NC(=O)c2cccc(C(=O)N(C)Cc3nc(C)cs3)c2)cc(C(C)C)c1` [Compound 251, N1-((2S,3R)-3-hydroxy-4-(3-isopropyl-5-(N-methylsulfamoyl)benzylamino)-1-phenylbutan-2-yl)-N3-methyl-N3-((4-methylthiazol-2-yl)methyl)isophthalamide] were less than 1000 nM and less than 300 nM.
On to `Cc1csc(CN(C)C(=O)c2cc(C(=O)N[C@@H](Cc3ccccc3)[C@H](O)CNCc3cncc(C(C)(F)F)c3)cc(N(C)C)c2)n1` [Compound 253, N1-((2S,3R)-4-((5-(1,1-difluoroethyl)pyridin-3-yl)methylamino)-3-hydroxy-1-phenylbutan-2-yl)-5-(dimethylamino)-N3-methyl-N3-((4-methylthiazol-2-yl)methyl)isophthalamide], for which, in assay [1], the IC50 was less than 1000 nM. Further, the Ki on memapsin 2 (fluorogenic substrate FS-2) was less than 300 nM.
The like results for `CC(=O)c1cc(C(=O)N[C@@H](Cc2ccccc2)[C@H](O)CNCc2cncc(C(C)C)c2)cc(C(=O)N(C)Cc2nc(C)cs2)c1` [Compound 237, 5-acetyl-N1-((2S,3R)-3-hydroxy-4-((5-isopropylpyridin-3-yl)methylamino)-1-phenylbutan-2-yl)-N3-methyl-N3-((4-methylthiazol-2-yl)methyl)isophthalamide] were, in that order, less than 1000 nM and less than 300 nM.
For `Cc1csc(CN(C)C(=O)c2cc(C(=O)N[C@@H](Cc3ccccc3)[C@H](O)CNCc3cccc(C(C)(F)F)c3)cc(N(C)C)c2)n1` [Compound 227, N1-((2S,3R)-4-(3-(1,1-difluoroethyl)benzylamino)-3-hydroxy-1-phenylbutan-2-yl)-5-(dimethylamino)-N3-methyl-N3-((4-methylthiazol-2-yl)methyl)isophthalamide], the IC50 in assay [1] was less than 1000 nM. In addition, the Ki on memapsin 2 (fluorogenic substrate FS-2) is less than 300 nM.
For the compound `COC(=O)c1cccc(CNC[C@@H](O)[C@H](Cc2ccccc2)NC(=O)c2cc(C(=O)N[C@H](C)c3ccccc3)cc(N(C)S(C)(=O)=O)c2)c1` [Compound 96, methyl 3-(((2R,3S)-2-hydroxy-3-(3-(N-methylmethylsulfonamido)-5-((R)-1-phenylethylcarbamoyl)benzamido)-4-phenylbutylamino)methyl)benzoate], the IC50 in assay [1] was less than 1000 nM. In addition, at memapsin 2 (20 minutes pre-incubation), the Ki was less than 300 nM.

These data come from patent US20100286145A1, “ISOPHTHALAMIDE DERIVATIVES INHIBITING BETA-SECRETASE ACTIVITY” (CoMentis, Inc., priority 2007, published 2010).
